Measured values as given in patent publication US7838548B2, “Compounds and methods for treating toll-like receptor 2-related diseases and conditions” (Eisai R&D Management Co., Ltd., priority 2003, dated 2010).

Tests used:
Format in all cases: cell-based
[1] = molecular target: T1, human TLR2 (Homo sapiens, UniProt O60603); assay: TLR2 antagonism assay, HEK-TLR2-ELAM luciferase reporter cells stimulated with Pam3CSK4
T1 construct: expressed in transfected cells
Method: (§1) Either Pam3CSK4 and R-MALP-2 lipopeptides (EMC-Microcollections), or lipopolysaccharide (LPS, List Biologicals) are dissolved in water to a concentration of 1 mg/mL, sonicated 5 times for 30 seconds, and stored in aliquots at −20° C. Prior to addition to cells, an aliquot of the dissolved ligand is sonicated for 1 minute and then is diluted in medium to 2 ng/mL Pam3CSK4, 16 ng/mL R-MALP-2, or 100 ng/mL LPS. The final concentration in the assay is 0.2 ng/mL Pam3CSK4, 1.6 ng/mL R-MALP-2, or 10 ng/mL LPS.
(§2) The test compounds are stored as 30 mM stocks in […]. The final concentrations of the test compounds in the assay are 0.1, 0.3, 1, 3, 10, and 30 μM in 0.2% DMSO. 0.2% DMSO is used in the assay as a control.
(§3) HEK-TLR2-ELAM cells were generated by a two-step method. In step 1, Hek293 cells were transfected with pcDNA3.0 encoding human TLR2 followed by antibiotic selection with G418 in D-MEM supplemented with 10% fetal bovine serum (Gibco BRL) to generate Hek-TLR2 cells. In step 2, Hek-TLR2 cells were transfected with pELAM-luc/Zeo followed by antibiotic selection with Zeocin in D-MEM supplemented with 10% fetal bovine serum. Transfectants were screened for TLR2 responsiveness by measuring ligand-induced pELAM-luciferase reporter activity, and analyzed for TLR2 mRNA expression by RT-PCR.
Step 1. On day 1, HEK-TLR2-ELAM cells are plated at 2×10^5 cells/mL, 80 μL/well, in 96-well black plates. The cells are incubated at 37° C., 5% CO2, for 24 hours. The growth medium used is D-MEM, 10% fetal bovine serum, 2 mM L-glutamine, 10 μg/mL Ciprofloxacin, 300 μg/mL Geneticin (G418), and 150 μg/mL Zeocin.
Step 2. On day 2, 10 μL of each test compound is added to the wells, and 10 μL lipopeptide is added to all of the wells. The plates are then incubated at 37° C., 5% CO2, for 18 hours.
(§4) Step 3. On day 3, 25 μL of Steady-Glo reagent (Promega, Inc.) is added to each well. The plates are then shaken for 5 minutes, and the chemiluminescence of each well is read in a Wallac1450 MicroBetaTriLux counter. Dose-response curves were plotted in KaleidaGraph, version 3.5 Synergy Software, and IC50 values were calculated.

[2] = molecular target: T2, TLR4 (Homo sapiens, UniProt O00206); assay: TLR4 antagonism assay, HEK-TLR4-MD2-ELAM luciferase reporter cells stimulated with LPS plus soluble CD14; conditions: Table 6, 10 ng/mL LPS plus 10 nM soluble CD14, 18 hours
T2 construct: expressed in transfected cells
Method: as §1, §2
HEK293 cells stably carrying plasmids for TLR4, MD2, and the NF-κB reporter gene ELAM-1-luciferase (HEK-TLR4-MD2-ELAM) were generated as described by Yang et al., J. Biol. Chem. 275:20861-20866, 2000.
Step 1. On day 1, HEK-TLR4-MD2-ELAM cells were plated at 4×10^5 cells/mL, 80 μL/well, in 96-well black plates. The growth medium used is D-MEM, 10% fetal bovine serum, 2 mM L-glutamine, 10 μg/mL Ciprofloxacin, 300 μg/mL Geneticin (G418), 150 μg/mL Zeocin, and 50 μg/mL Hygromycin.
Step 2. On day 2, 10 μL of each test compound is added to the wells, and 10 μL of LPS plus 10 nM soluble CD14 (Biometec) is added to all of the wells. The plates are then incubated at 37° C., 5% CO2, for 18 hours.
as §4

[3] = molecular target: T1, human TLR2; assay: TLR2 antagonism assay, HEK-TLR2-ELAM luciferase reporter cells stimulated with R-MALP-2; conditions: Table 7, diacylated lipopeptide R-MALP-2 (TLR2 interacts with TLR6), 1.6 ng/mL
Method: as §1, §2
as §3, with “In step 2, Hek-TLR2 cells were transfected with pELAM-luc/Zeo followed by antibiotic selection with Zeocin in D-MEM supplemented with 10% fetal bovine serum.” left out, “RT-PCR. […]” for “RT-PCR.”
Step 3. […] The plates are then shaken for 5 minutes, and the chemiluminescence of each well is read in a Wallac1450 MicroBetaTriLux counter. Dose-response curves were plotted in KaleidaGraph, version 3.5 Synergy Software, and IC50 values were calculated. […]

[4] = Table 6, 0.2 ng/mL Pam3CSK4, 18 hours, ELAM-luciferase reporter
[5] = Table 7, triacylated lipopeptide Pam3CSK4 (TLR2 associates with TLR1), 0.2 ng/mL

T1 sequence (O60603 21-784): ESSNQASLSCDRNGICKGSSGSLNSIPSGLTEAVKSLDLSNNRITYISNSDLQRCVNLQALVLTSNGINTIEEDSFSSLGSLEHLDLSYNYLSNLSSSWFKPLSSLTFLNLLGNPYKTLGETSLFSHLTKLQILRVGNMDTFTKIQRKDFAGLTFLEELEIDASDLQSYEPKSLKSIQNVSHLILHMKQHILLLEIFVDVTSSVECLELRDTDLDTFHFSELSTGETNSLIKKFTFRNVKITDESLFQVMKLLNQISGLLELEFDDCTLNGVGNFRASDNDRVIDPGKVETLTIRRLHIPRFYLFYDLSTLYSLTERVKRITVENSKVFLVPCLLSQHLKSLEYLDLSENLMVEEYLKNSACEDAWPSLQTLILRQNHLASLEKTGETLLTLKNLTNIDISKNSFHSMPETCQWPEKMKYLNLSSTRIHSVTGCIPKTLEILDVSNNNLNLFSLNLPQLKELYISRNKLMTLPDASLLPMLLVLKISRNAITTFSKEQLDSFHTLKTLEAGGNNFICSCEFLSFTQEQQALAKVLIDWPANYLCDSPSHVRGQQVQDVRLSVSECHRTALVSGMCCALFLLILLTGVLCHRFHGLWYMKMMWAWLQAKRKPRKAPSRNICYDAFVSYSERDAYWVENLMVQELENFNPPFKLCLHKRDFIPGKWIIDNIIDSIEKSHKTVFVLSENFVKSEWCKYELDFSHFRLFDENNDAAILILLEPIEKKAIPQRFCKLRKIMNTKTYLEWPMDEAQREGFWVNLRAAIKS
T2 sequence (O00206 24-839): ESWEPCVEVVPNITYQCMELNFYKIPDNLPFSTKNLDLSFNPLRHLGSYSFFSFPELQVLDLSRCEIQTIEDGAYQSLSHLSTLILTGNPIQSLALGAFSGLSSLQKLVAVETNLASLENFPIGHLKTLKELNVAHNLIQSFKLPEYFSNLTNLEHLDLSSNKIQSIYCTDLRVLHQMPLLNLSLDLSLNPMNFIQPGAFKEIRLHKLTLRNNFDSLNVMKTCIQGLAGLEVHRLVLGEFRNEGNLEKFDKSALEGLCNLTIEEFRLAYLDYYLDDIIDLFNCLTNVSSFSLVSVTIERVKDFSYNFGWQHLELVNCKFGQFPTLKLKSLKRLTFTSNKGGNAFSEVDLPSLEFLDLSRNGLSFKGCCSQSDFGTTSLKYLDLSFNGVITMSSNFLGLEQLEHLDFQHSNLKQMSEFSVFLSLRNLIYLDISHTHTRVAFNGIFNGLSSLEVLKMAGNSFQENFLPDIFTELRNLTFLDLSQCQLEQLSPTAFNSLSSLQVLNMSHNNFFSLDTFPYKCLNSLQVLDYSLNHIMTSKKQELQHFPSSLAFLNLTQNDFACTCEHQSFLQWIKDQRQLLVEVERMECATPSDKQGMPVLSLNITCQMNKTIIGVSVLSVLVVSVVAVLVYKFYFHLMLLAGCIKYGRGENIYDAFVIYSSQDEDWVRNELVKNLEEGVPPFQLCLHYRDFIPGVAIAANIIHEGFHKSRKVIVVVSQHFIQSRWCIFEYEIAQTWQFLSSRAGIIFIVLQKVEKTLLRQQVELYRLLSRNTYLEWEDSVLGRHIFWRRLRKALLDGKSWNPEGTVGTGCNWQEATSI
T2 sequence (Q9Y6Y9 17-160 partner limits assumed): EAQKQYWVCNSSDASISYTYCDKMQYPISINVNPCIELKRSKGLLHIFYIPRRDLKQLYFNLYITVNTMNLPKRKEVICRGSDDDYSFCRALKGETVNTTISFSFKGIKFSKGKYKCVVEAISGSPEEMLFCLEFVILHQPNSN

Structure (SMILES): CCCCCCCCCCCCCCCC(=O)N[C@@H](COP(=O)(O)OCCNC(=O)[C@@H](NC(=O)Cc1c[nH]c2ccccc12)[C@@H](C)CC)C(=O)NCCCOC(=O)CCCCCCCCCCC [ER811211]
- IC50 [1, 4]: 0.44 µM
- IC50 [2]: 0.7 µM

Structure (SMILES): CCCCCCCCCCCCCCCC(=O)OC[C@H](CNC(=O)[C@H](COP(=O)(O)OCCNC(=O)[C@@H](NC(=O)Cc1c[nH]c2ccc(OCc3ccccc3)cc12)[C@@H](C)CC)NC(C)=O)OC(=O)CCCCCCCCCCCCCCC [ER811245]
- IC50 [1, 4]: 0.43 µM
- IC50 [1, 5]: 0.44 µM
- IC50 [3]: 30 µM
- IC50 [2]: 3.4 µM

Structure (SMILES): CCCCCCCCCCCCCCCC(=O)N[C@@H](COP(=O)(O)OCCNC(=O)[C@@H](NC(=O)Cc1c[nH]c2ccc(Br)cc12)[C@@H](C)CC)C(=O)NCCCOC(=O)CCCCCCCCCCC [ER811232]
- IC50 [1, 4]: 0.75 µM
- IC50 [2]: 0.4 µM

Structure (SMILES): CCCCCCCCCCCCCCCC(=O)OCCCNC(=O)C(COP(=O)(O)OCCNC(=O)[C@@H](NC(=O)Cc1c[nH]c2ccccc12)[C@@H](C)CC)NC(=O)CCCCCCCCCCC (stereo partly drawn) [ER811212]
- IC50 [1, 4]: 0.39 µM
- IC50 [2]: 1 µM

Structure (SMILES): CCCCCCCCCCCCCC(=O)N[C@H](COCC[C@@H](CCCCCCC)OC(=O)CCCCCCCCCCC)COP(=O)(O)OCCNC(=O)[C@@H](NC(=O)Cc1c[nH]c2ccccc12)[C@@H](C)CC [ER808977]
- IC50 [1, 5]: 0.24 µM
- IC50 [3]: 20 µM

Structure (SMILES): CCCCCCCCCCCCCCCCCCCC(=O)N[C@@H](COP(=O)(O)OCCNC(=O)[C@@H](NC(=O)Cc1c[nH]c2ccccc12)[C@@H](C)CC)C(=O)NCCC(O)CCCCCCCCCC (mixture of isomers) [ER811395]
- IC50 [1, 4]: 0.65 µM
- IC50 [2]: 1.8 µM

Structure (SMILES): CCCCCCCCCCCCCCCC(=O)OC[C@H](CNC(=O)[C@@H](COP(=O)(O)OCCNC(=O)[C@@H](NC(=O)Cc1c[nH]c2ccc(OCc3ccccc3)cc12)[C@@H](C)CC)NC(C)=O)OC(=O)CCCCCCCCCCCCCCC [ER811261]
- IC50 [1, 4]: 0.5 µM
- IC50 [2]: 1.8 µM

Structure (SMILES): CCCCCCCCCCCCCCCCCCCC(=O)N[C@@H](COP(=O)(O)OCCNC(=O)[C@@H](NC(=O)Cc1c[nH]c2ccc(OCc3ccccc3)cc12)[C@@H](C)CC)C(=O)NCCC(O)CCCCCCCCCCCCC (mixture of isomers) [ER812011]
- IC50 [2]: 6.6 µM

Structure (SMILES): CCCCCCCCCCCCCCCC(=O)N[C@@H](COP(=O)(O)OCCNC(=O)[C@@H](NC(=O)Cc1c[nH]c2ccc(-c3ccccc3)cc12)[C@@H](C)CC)C(=O)NCCCOC(=O)CCCCCCCCCCC [ER811243]
- IC50 [2]: 0.2 µM

Structure (SMILES): CCCCCCCCCCCCCCCCCCCC(=O)N[C@@H](COP(=O)(O)OCCNC(=O)[C@@H](NC(=O)Cc1c[nH]c2ccccc12)[C@@H](C)CC)C(=O)NCCC(O)CCCCCCCCCCCCC (mixture of isomers) [ER811393]
- IC50 [2]: 12.3 µM

Structure (SMILES): CCCCCCCCCCCCCCCCCCCC(=O)N[C@@H](COP(=O)(O)OCCNC(=O)[C@@H](NC(=O)Cc1c[nH]c2ccc(OCc3ccccc3)cc12)C(C)C)C(=O)NCCC(O)CCCCCCCCCCCCC (mixture of isomers) [ER811254]
- IC50 [1, 4]: 0.77 µM
- IC50 [2]: 3.6 µM
